In patent publication US10292390B2, “Inhibition and dispersion of bacterial biofilms with 2-aminobenzimidazole derivatives” (WISCONSIN ALUMNI RESEARCH FOUNDATION, priority 2011, dated 2019):
Entries after “also recorded” stand apart in the source; their conditions may differ.

What was measured:
[1] = UV-Vis metal binding studies; type: physicochemical; settings: compound:metal ratios of approximately 1:1; preliminary
P. aeruginosa biofilm = test: effects of metals on biofilm inhibition; type: cell-based, Pseudomonas aeruginosa; settings: compound at 250 μM; Cu(II)SO4, Fe(II)SO4, Fe(III)Cl3, Zn(II)SO4 up to 1000 μM; 24 h
Experimental: Microtiter plates were first prepared by adding 50 μL aliquots of a 1 mM EtOH stock solution of 7 to each well in order to effect a final well concentration upon inoculum addition of 250 μM; this concentration was chosen as it is approximately the minimum concentration of 7 showing maximal biofilm inhibition. The EtOH was then removed by drying at 37° C., and the plates were sterilized. Directly prior to inoculation, 100 mM stock solutions of metals were freshly prepared in 18 MΩ H2O and diluted in series in a polypropylene 96-well microtiter plate (Costar 3879) to achieve stocks with the following concentrations: 100, 75, 50, 25, 12.5, 6.25, 1.25, 0.25, 0.05, and 0 mM. The choice of metals for evaluation was based on the results of the UV-Vis studies and included Cu(II)SO4, Fe(II)SO4.7H2O, Fe(III)Cl3.6H2O, and Zn(II)SO4.7H2O. Using a 10 μL multi-channel pipette, 2 μL aliquots of the metal stock solutions were added to the side of wells, avoiding contact with dried 7 on the bottom of the well. […] The highest metal:7 ratio obtained was 4:1 (1000 μM metal to 250 μM 7), which was assumed to be sufficient to see any mitigating effect based on our UV-Vis studies. […] All samples were tested in replicates of 3 wells and were assessed for biofilm production after 24 h incubation by CV staining and quantification.

Gram-positive bacteria = settings: WO 2010/144686 (7); ref. 34 (18); cited from earlier work
COS-7 cells = test: fluorescence-based live/dead cytotoxicity assay; type: cell-based; settings: 24 hrs, live/dead staining
Experimental: Experiments to characterize the toxicity of exemplary compound 21 in a model mammalian cell line were conducted by incubating COS-7 African Green Monkey kidney cells (American Type Culture Collection, Manassas, Va.), a fibroblast-like mammalian cell line, in the presence of varying amounts of compound 21 and characterizing resulting levels of cell death using a standard fluorescence-based live/dead assay. Cells were seeded in 96-well plates by adding 200 μL of a suspension containing 50,000 cells/mL in cell culture media (Gibco® DMEM supplemented with 10% (v/v) fetal bovine serum, 100 units/mL penicillin, and 100 μg/mL streptomycin) in individual wells of a black-walled, clear-bottomed 96-well cell culture plate (Costar 3603). […] Fluorescence microscopy images of the wells were acquired using an Olympus IX70 microscope and Metavue version 7.1.2.0 software package (Molecular Devices, Toronto, Canada). Images were analyzed using Image J 1.43u (National Institutes of Health; Washington, D.C.). Live and dead cell results were also analyzed by averaging the mean fluorescence from a minimum of six images taken from three replicate samples and normalized to untreated (live control) and methanol-treated (dead control) wells (see FIG. 20).

[2] = solubility of stock in 95:5 M9+:LB media; type: physicochemical; settings: at 3.16 mM in 95:5 M9+:LB media
Experimental: Compounds 7 and 21 were evaluated for their ability to disperse preformed P. aeruginosa biofilms. For biofilm dispersion assessment, the static CV biofilm assay described above was modified in order to introduce compound to preformed biofilm for an additional incubation period. Solvent evaporation delivery of compound was not possible in this format; thus, stock solutions of compounds 7 and 21 were prepared in 95:5 M9+:LB media. Stocks of 7 and 21 were prepared at 3.16 mM and 1 mM, respectively (21 was insoluble at 3.16 mM). These stocks were diluted in series to obtain final concentrations as follows: 10^x μM where x=3.5 (7 only), 3, 2.5, 2, 1.5 (21 only), 1, 0, −1, or −2. Biofilms were allowed to form in microtiter plates in the absence of compound for 24 h, after which non-biofilm material was removed by dumping and washing as normal with sterile PBS. After the second washing, 200 μL of fresh 95:5 M9+:LB media containing compound at various concentrations was added to the wells, and the plates were incubated at 37° C. for an additional 24 h. […] Biofilm was fixed and quantified with CV as described above. The amount of dispersed biofilm was determined via comparison of the amount of biofilm at 48 h in the presence of compound versus the amount of biofilm in the “no compound” positive control at 24 h. […]

P. aeruginosa growth = test: bacterial growth over time (OD600); type: cell-based, Pseudomonas aeruginosa; settings: prior to 12 h; at concentrations as low as 10 μM; diminish by 12 h
Experimental: The effects of compounds 7 and 21 on P. aeruginosa growth were evaluated by monitoring the OD600 as a function of time. Microtiter plates were prepared similar to biofilm dose-response analyses such that final well concentrations upon inoculum addition ranged from 10^x μM where x=3.5, 3, 2.5, 2, 1.5, 1, 0, −1, or −2. Compounds 7 and 21 were tested in replicates of 3 wells, and the OD600 was measured every 1-2 h for 24 h.

Compound | interaction with metals [1] | mitigating effect of metals on biofilm inhibitory activity (P. aeruginosa biofilm) | biofilm inhibition in Gram-positive bacteria as reported (Gram-positive bacteria) | concentrations at which not substantially cytotoxic (COS-7 cells) | solubility [2] | growth inhibition versus positive control (P. aeruginosa growth)
Nc1nc2ccccc2[nH]1 [Compound 7, 2-aminobenzimidazole] | able to interact with certain metals | none of the tested metals were able to mitigate the biofilm inhibitory activity; also recorded: observed no change in activity | no inhibition of biofilm formation |  |  | 
Cc1cc2nc(N)[nH]c2cc1C [Compound 21, 5,6-Dimethyl-2-aminobenzimidazole] |  |  |  | below 0.25 mM | insoluble | greater than 20%
